According to ChEMBL document CHEMBL1201862, “PubChem BioAssay data set” (2004):
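96-well plates; 48 h exposure; 5 concentrations. Endpoints by linear interpolation between flanking doses. Not reached: highest tested concentration assigned. At the GI50, growth is halved.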 Active and inactive are the calls of the source. Cut-off read from the data, not from the text of the source: active = GI50 up to about 1.1 µM and inactive = higher.

Legend:
Experiment in all cases: NCI tumour cell line growth inhibition, 48 h
LOX IMVI = system: LOX IMVI
HL-60 = system: HL-60
HCT-116 = system: HCT-116
M14 = system: M14
HCT-15 = system: HCT-15
NCI-H226 = system: NCI-H226
ACHN = system: ACHN
EKVX = system: EKVX
KM12 = system: KM12
RXF 393 = system: RXF 393
A549 = system: A549
COLO 205 = system: COLO 205
SNB-19 = system: SNB-19
K562 = system: K562
NCI-H522 = system: NCI-H522
NCI-H460 = system: NCI-H460
SR = system: SR

SMILES | GI50 (LOX IMVI) | GI50 (HL-60) | GI50 (HCT-116) | GI50 (M14) | GI50 (HCT-15) [µM] | GI50 (NCI-H226) | GI50 (ACHN) | GI50 (EKVX) | GI50 (KM12) | GI50 (RXF 393) | GI50 (A549) | GI50 (COLO 205) | GI50 (SNB-19) | GI50 (K562) | GI50 (NCI-H522) | GI50 (NCI-H460) | GI50 (SR)
CSc1nc2nc(C(O)C(O)C(O)CO)cnc2c(=O)[nH]1 (centres undefined) | > 100 µM (inactive) | > 100 µM (inactive) | > 100 µM (inactive) | > 100 µM (inactive) | > 100 | > 100 µM (inactive) | > 100 µM (inactive) | > 100 µM (inactive) | > 100 µM (inactive) | > 100 µM (inactive) | > 100 µM (inactive) | > 100 µM (inactive) | > 100 µM (inactive) | > 10 µM (inactive) | > 100 µM (inactive) | > 100 µM (inactive) | –
CCOC(=O)Cn1c(=O)n(C)c(=O)c2c1ncn2Cc1ccccc1 | – | – | > 100 µM (inactive) | > 100 µM (inactive) | > 100 | > 100 µM (inactive) | > 100 µM (inactive) | > 100 µM (inactive) | > 100 µM (inactive) | – | > 100 µM (inactive) | > 100 µM (inactive) | > 100 µM (inactive) | > 100 µM (inactive) | > 100 µM (inactive) | > 100 µM (inactive) | > 100 µM (inactive)
CC(C)=Cc1cc(C(=O)NCCNC(=O)c2cc(C=C(C)C)nc(NC#N)n2)nc(NC#N)n1 | > 100 µM (inactive) | > 100 µM (inactive) | > 100 µM (inactive) | > 100 µM (inactive) | > 100 | > 100 µM (inactive) | > 100 µM (inactive) | > 100 µM (inactive) | > 100 µM (inactive) | > 100 µM (inactive) | > 100 µM (inactive) | > 100 µM (inactive) | > 100 µM (inactive) | > 100 µM (inactive) | > 100 µM (inactive) | > 100 µM (inactive) | –
CC(Oc1ccc(OCC2CCCCC2)cc1)C(=O)NCCO (centres undefined) | 26.7 µM (inactive) | > 100 µM (inactive) | > 100 µM (inactive) | > 100 µM (inactive) | > 100 | > 100 µM (inactive) | > 100 µM (inactive) | – | > 100 µM (inactive) | > 100 µM (inactive) | > 100 µM (inactive) | – | > 100 µM (inactive) | > 100 µM (inactive) | 87.1 µM (inactive) | 52.1 µM (inactive) | –
CCOC(=O)NC(=O)c1cn(CCN2CCN(C(=O)CCCCCCCCCCNc3ncnc4c3ncn4C3OC(CO)C(O)C3O)CC2)c(=O)[nH]c1=O (centres undefined) | > 100 µM (inactive) | > 100 µM (inactive) | > 100 µM (inactive) | > 100 µM (inactive) | > 100 | – | > 100 µM (inactive) | – | > 100 µM (inactive) | – | > 100 µM (inactive) | > 100 µM (inactive) | > 100 µM (inactive) | > 100 µM (inactive) | – | > 100 µM (inactive) | > 100 µM (inactive)
CC(=O)C1=CSC2[C@H](NC(=O)Cc3ccccc3)C(=O)N2C1C(=O)OC(c1ccccc1)c1ccccc1 (some centres undefined) | – | 35.2 µM (inactive) | > 100 µM (inactive) | > 100 µM (inactive) | – | > 100 µM (inactive) | – | > 100 µM (inactive) | > 100 µM (inactive) | – | 91.8 µM (inactive) | > 100 µM (inactive) | > 100 µM (inactive) | > 100 µM (inactive) | > 100 µM (inactive) | – | 36.7 µM (inactive)
COc1ccc(/C=N\O[Si](C)(C)C(C)(C)C)cc1O[Si](C)(C)C(C)(C)C | 20 µM (inactive) | 19.6 µM (inactive) | 15.7 µM (inactive) | 20 µM (inactive) | 18.2 | – | 18 µM (inactive) | 21 µM (inactive) | 17.6 µM (inactive) | 14.3 µM (inactive) | 18 µM (inactive) | 22.5 µM (inactive) | 18.9 µM (inactive) | 18.3 µM (inactive) | – | 20.6 µM (inactive) | –
Cc1[nH]nc2c1C(=O)C=C(N(CCO)c1ccccc1)C2=O | 4.05 µM (inactive) | > 100 µM (inactive) | > 100 µM (inactive) | > 100 µM (inactive) | > 100 | > 100 µM (inactive) | – | > 100 µM (inactive) | > 100 µM (inactive) | > 100 µM (inactive) | > 100 µM (inactive) | > 100 µM (inactive) | > 100 µM (inactive) | > 100 µM (inactive) | > 100 µM (inactive) | – | –
COC(=O)c1cc(OC(C)=O)c2c(OC)ccc(OC)c2c1 | – | – | > 100 µM (inactive) | > 100 µM (inactive) | 64.6 | > 100 µM (inactive) | > 100 µM (inactive) | > 100 µM (inactive) | > 100 µM (inactive) | > 100 µM (inactive) | > 100 µM (inactive) | > 100 µM (inactive) | – | > 100 µM (inactive) | – | > 100 µM (inactive) | 86.1 µM (inactive)
CC(C)=CC(=O)Cc1nc2cc(C)c(C)cc2[nH]c1=O | > 100 µM (inactive) | > 100 µM (inactive) | > 100 µM (inactive) | > 100 µM (inactive) | > 100 | > 100 µM (inactive) | > 100 µM (inactive) | 9.89 µM (inactive) | > 100 µM (inactive) | 64.9 µM (inactive) | > 100 µM (inactive) | > 100 µM (inactive) | > 100 µM (inactive) | > 100 µM (inactive) | – | > 100 µM (inactive) | > 100 µM (inactive)
C=CCCc1cc(OC)ccc1CN(C)C(C)(C)CO | > 100 µM (inactive) | – | > 100 µM (inactive) | – | > 100 | – | > 100 µM (inactive) | > 100 µM (inactive) | > 100 µM (inactive) | > 100 µM (inactive) | > 100 µM (inactive) | > 100 µM (inactive) | > 100 µM (inactive) | > 100 µM (inactive) | – | > 100 µM (inactive) | > 100 µM (inactive)
O=C(CCc1n[nH]c(=S)o1)Nc1ccccc1C(F)(F)F | – | > 100 µM (inactive) | > 10 µM (inactive) | > 100 µM (inactive) | 20.2 | > 100 µM (inactive) | > 100 µM (inactive) | > 100 µM (inactive) | > 100 µM (inactive) | – | – | 57.4 µM (inactive) | > 100 µM (inactive) | 66.7 µM (inactive) | > 100 µM (inactive) | > 100 µM (inactive) | –
CCN(CC)CCNC(=O)c1cccc2nc3ccccc3nc12 | 4.4 µM (inactive) | – | 4.16 µM (inactive) | 18.5 µM (inactive) | 6.53 | 8.15 µM (inactive) | 5.06 µM (inactive) | 23.4 µM (inactive) | 10.3 µM (inactive) | 12.4 µM (inactive) | 8.05 µM (inactive) | 3.78 µM (inactive) | 21.2 µM (inactive) | 1.38 µM (inactive) | 28.5 µM (inactive) | – | –
COC(=O)c1cc(C)c(C)c2c1NC(=O)CNC2=O | – | > 100 µM (inactive) | > 100 µM (inactive) | > 100 µM (inactive) | > 100 | – | > 100 µM (inactive) | > 100 µM (inactive) | > 100 µM (inactive) | > 100 µM (inactive) | > 100 µM (inactive) | > 100 µM (inactive) | – | > 100 µM (inactive) | – | > 100 µM (inactive) | > 100 µM (inactive)
Sc1nnc(COc2ccc(Cl)cc2)[nH]1 | > 100 µM (inactive) | > 100 µM (inactive) | > 100 µM (inactive) | > 100 µM (inactive) | > 100 | > 100 µM (inactive) | > 100 µM (inactive) | – | > 100 µM (inactive) | > 100 µM (inactive) | > 100 µM (inactive) | > 100 µM (inactive) | > 100 µM (inactive) | > 100 µM (inactive) | > 100 µM (inactive) | > 100 µM (inactive) | –
Cn1c2c(c3ccccc31)CCN(CCCN1CCN(c3cccc(Cl)c3)CC1)C2=O | 20.2 µM (inactive) | 6.85 µM (inactive) | 12.3 µM (inactive) | 17.1 µM (inactive) | 25.1 | – | 10.9 µM (inactive) | 41.7 µM (inactive) | – | 14.9 µM (inactive) | 49.3 µM (inactive) | 15.1 µM (inactive) | 27.4 µM (inactive) | 14.8 µM (inactive) | 18.8 µM (inactive) | 5.81 µM (inactive) | –
CC1OC(=O)N(CCCC=C2SCCCS2)C1=O (centres undefined) | > 100 µM (inactive) | – | > 100 µM (inactive) | > 100 µM (inactive) | > 100 | > 100 µM (inactive) | > 100 µM (inactive) | > 100 µM (inactive) | > 100 µM (inactive) | > 100 µM (inactive) | > 100 µM (inactive) | > 100 µM (inactive) | > 100 µM (inactive) | > 100 µM (inactive) | > 100 µM (inactive) | > 100 µM (inactive) | –
CC1=NN(C(=O)c2ccc(Cl)cc2)C(=O)/C1=C/c1ccc(Cl)cc1 | > 100 µM (inactive) | > 100 µM (inactive) | > 100 µM (inactive) | > 100 µM (inactive) | – | – | > 100 µM (inactive) | > 100 µM (inactive) | > 100 µM (inactive) | > 100 µM (inactive) | > 100 µM (inactive) | > 100 µM (inactive) | > 100 µM (inactive) | > 100 µM (inactive) | > 100 µM (inactive) | > 100 µM (inactive) | –
OCCCCn1cnc2c(O)ncnc21 | > 100 µM (inactive) | > 100 µM (inactive) | > 100 µM (inactive) | > 100 µM (inactive) | > 100 | > 100 µM (inactive) | > 100 µM (inactive) | > 100 µM (inactive) | > 100 µM (inactive) | > 100 µM (inactive) | > 100 µM (inactive) | > 100 µM (inactive) | > 100 µM (inactive) | > 100 µM (inactive) | – | > 100 µM (inactive) | > 100 µM (inactive)
COc1cc(C(=O)O)cc2c1[nH]c1ccccc12 [MUKOEIC ACID] | > 25 µM (inactive) | > 25 µM (inactive) | > 25 µM (inactive) | > 25 µM (inactive) | > 25 | > 25 µM (inactive) | > 25 µM (inactive) | – | > 25 µM (inactive) | – | > 25 µM (inactive) | > 25 µM (inactive) | > 25 µM (inactive) | > 25 µM (inactive) | > 25 µM (inactive) | > 25 µM (inactive) | > 25 µM (inactive)
